Measured values from patent US8455497B2, “Inhibitors of aspartyl protease” (Vertex Pharmaceuticals Incorporated, priority 1999, dated 2013).
Like-named read-outs stand apart in the source and are kept apart here.

Experiments:
[1] = tested on: HIV-1 (strain IIIB); experiment: Antiviral activity assay in MT4 cells (propidium iodide based); assay type: cell-based; conditions: wild type HIV-1 virus, MT4 cells, read-out: Wildtype virus - IC50
Procedure, shortened: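 MT4 cells infected with HIV-1 IIIB (MOI 100×TCID50, 1 hr, 37°C), diluted 6-fold into wells with serially diluted compound, incubated 5 days. Cells lysed with Nonidet-40; DNA content per well estimated by propidium iodide staining as the viability read-out, with mock-infected controls.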

[2] = tested on: D545701-14 multi protease inhibitor resistant virus; experiment: Anti-viral activity against resistant virus D545701-14 in MT4 cells; assay type: cell-based, HIV-1
Experimental: (§1) Exponentially growing MT4 cells were harvested and centrifuged at 1000 rpm for 10 min in a Jouan centrifuge (model CR 4 12). […] Cell aliquots were infected by the addition of HIV-1 (strain IIIB) diluted to give a viral multiplicity of infection of 100×TCID50. […] Cell infection was allowed to proceed for 1 hr at 37° in a tissue culture incubator with humidified 5% CO2 atmosphere. After the 1 hr incubation the virus/cell suspensions were diluted 6-fold with fresh medium, and 125 μl of the cell suspension was added to each well of the plate containing pre-diluted compound. Plates were then placed in a tissue culture incubator with humidified 5% CO2 for 5 days. At the end of the incubation period, 27 μl of 5% Nonidet-40 was added to each well of the incubation plate. After thorough mixing with a Costar multitip pipetter, 60 μl of the mixture was transferred to filter-bottomed 96-well plates. The plates were analyzed in an automated assay instrument (Screen Machine, Idexx Laboratories). The assay makes use of a propidium iodide dye to estimate the DNA content of each well.
(§2) Anti-Viral Activity Against Resistant Viruses
EP13 and DS45701, two multi protease inhibitor resistant viruses were used to assess potency against mutant viruses. These viruses contain the following mutations relative to the consensus sequence of wild type virus: […]

[3] = tested on: EP13 multi protease inhibitor resistant virus; experiment: Anti-viral activity against resistant virus EP13 in MT4 cells; assay type: cell-based, HIV-1
Experimental: as §1, §2
EP13 and DS45701, two multi protease inhibitor resistant viruses were used to assess potency against mutant viruses. These viruses contain the following mutations relative to the consensus sequence of wild type virus:
EP13: Protease amino acid sequence: M46I, L63P, A71V, V82F/L, I84V; No reverse transcriptase mutations.

[4] = D545701-14 multi protease inhibitor resistant virus, MT4 cells, read-out: D545701-14 mutant - IC50
[5] = EP13 multi protease inhibitor resistant virus, MT4 cells, read-out: EP13 mutant IC50
[6] = Human immunodeficiency virus 1, IIIB
[7] = Human immunodeficiency virus 1, MT4, read-out: D545701-14 mutant - IC50, D545701-14 multi protease inhibitor resistant virus, MT4 cells
[8] = Human immunodeficiency virus 1, MT4, read-out: EP13 mutant IC50, EP13 multi protease inhibitor resistant virus, MT4 cells

Row | SMILES | IC50 [1] | IC50 [2, 4] | IC50 [3, 5] | IC50 [1, 6] | IC50 [2, 7] | IC50 [3, 8] | IC50 ([2]; Human immunodeficiency virus 1, MT4, read-out: D545701-14 mutant - IC50) | IC50 ([3]; Human immunodeficiency virus 1, MT4, read-out: EP13 mutant IC50)
1 | CC(=O)NCCCCOc1ccc(C[C@H](NC(=O)O[C@H]2CO[C@H]3OCC[C@H]32)[C@H](O)CN(CC(C)C)S(=O)(=O)c2ccc3c(c2)OCO3)cc1 [Compound 230] | 10 to 100 nM | 1 to 10 nM | 1 to 10 nM |  |  |  |  | 
2 | CC(C)CN(C[C@@H](O)[C@H](Cc1ccc(OCCCNS(C)(=O)=O)cc1)NC(=O)O[C@H]1CO[C@H]2OCC[C@H]21)S(=O)(=O)c1ccc2c(c1)OCO2 [Compound 251] | 10 to 100 nM | 1 to 10 nM | 1 to 10 nM |  |  |  |  | 
3 | CC(C)CN(C[C@@H](O)[C@H](Cc1ccc(OCCNC(=O)N(C)C)cc1)NC(=O)O[C@H]1CO[C@H]2OCC[C@H]21)S(=O)(=O)c1ccc2c(c1)OCO2 [Compound 253] | 10 to 100 nM | 1 to 10 nM | 1 to 10 nM |  |  |  |  | 
4 | CC(C)CN(C[C@@H](O)[C@H](Cc1ccc(OCCCNC(=O)c2ccoc2)cc1)NC(=O)O[C@H]1CO[C@H]2OCC[C@H]21)S(=O)(=O)c1ccc2c(c1)OCO2 [Compound 261, (3R,3aS,6aR)-hexahydrofuro[2,3-b]furan-3-yl (1S,2R)-3-[(1,3-benzodioxol-5-ylsulfonyl)(isobutyl)amino]-1-{4-[3-(3-furoylamino)propoxy]benzyl}-2-hydroxypropylcarbamate] |  |  |  | 1 to 10 nM | 1 to 10 nM | 1 to 10 nM |  | 
5 | CC(C)CN(C[C@@H](O)[C@H](Cc1ccc(OCCN/C(=N/C#N)Oc2ccccc2)cc1)NC(=O)O[C@H]1CO[C@H]2OCC[C@H]21)S(=O)(=O)c1ccc2c(c1)OCO2 [Compound 262, (3R,3aS,6aR)-hexahydrofuro[2,3-b]furan-3-yl (1S,2R)-3-[(1,3-benzodioxol-5-ylsulfonyl)(isobutyl)amino]-1-[4-(2-{[(E and/or Z)-(cyanoimino)(phenoxy)methyl]amino}ethoxy)benzyl]-2-hydroxypropylcarbamate] |  |  |  | 1 to 10 nM |  |  | 1 to 10 nM | 1 to 10 nM
6 | CC(C)CN(C[C@@H](O)[C@H](Cc1ccc(OCCCCN/C(=N/C#N)Oc2ccccc2)cc1)NC(=O)O[C@H]1CO[C@H]2OCC[C@H]21)S(=O)(=O)c1ccc2c(c1)OCO2 [Compound 263, (3R,3aS,6aR)-hexahydrofuro[2,3-b]furan-3-yl (1S,2R)-3-[(1,3-benzodioxol-5-ylsulfonyl)(isobutyl)amino]-1-[4-(4{[(E and/or Z)-(cyanoimino)(phenoxy)methyl]amino}butoxy)benzyl]-2-hydroxypropylcarbamate] |  |  |  | 1 to 10 nM | 1 to 10 nM | 1 to 10 nM |  | 
7 | CC(C)CN(C[C@@H](O)[C@H](Cc1ccc(OCCCNc2ccc(C#N)cn2)cc1)NC(=O)O[C@H]1CO[C@H]2OCC[C@H]21)S(=O)(=O)c1ccc2c(c1)OCO2 [Compound 270, (3R,3aS,6aR)-hexahydrofuro[2,3-b]furan-3-yl (1S,2R)-3-[(1,3-benzodioxol-5-ylsulfonyl)(isobutyl)amino]-1-(4-{3[(5-cyano-2-pyridinyl)amino]propoxy}benzyl)-2-hydroxypropylcarbamate] |  |  |  | 1 to 10 nM | 1 to 10 nM | 1 to 10 nM |  | 
8 | CC(C)CN(C[C@@H](O)[C@H](Cc1ccc(OCCCNc2ccc(C(F)(F)F)cn2)cc1)NC(=O)O[C@H]1CO[C@H]2OCC[C@H]21)S(=O)(=O)c1ccc2c(c1)OCO2 [Compound 272, (3R,3aS,6aR)-hexahydrofuro[2,3-b]furan-3-yl (1S,2R)-3-[(1,3-benzodioxol-5-ylsulfonyl)(isobutyl)amino]-2-hydroxy-1-[4-(3-{[5-(trifluoromethyl)-2-pyridinyl]amino}propoxy)benzyl]propylcarbamate] |  |  |  | 1 to 10 nM | 1 to 10 nM | 1 to 10 nM |  | 
9 | CC(C)CN(C[C@@H](O)[C@H](Cc1ccc(OCCCN(C)C)cc1)NC(=O)O[C@H]1CO[C@H]2OCC[C@H]21)S(=O)(=O)c1ccc2c(c1)OCO2 [Compound 274, (3R,3aS,6aR)-hexahydrofuro[2,3-b]furan-3-yl (1S,2R)-3-[(1,3-benzodioxol-5-ylsulfonyl)(isobutyl)amino]-1-{4-[3-(dimethylamino)propoxy]benzyl}-2-hydroxypropylcarbamate] |  |  |  | 10 to 100 nM | 10 to 100 nM | 1 to 10 nM |  | 
10 | CC(C)CN(C[C@@H](O)[C@H](Cc1ccc(OCCCCN(C)C)cc1)NC(=O)O[C@H]1CO[C@H]2OCC[C@H]21)S(=O)(=O)c1ccc2c(c1)OCO2 [Compound 275, (3R,3aS,6aR)-hexahydrofuro[2,3-b]furan-3-yl (1S,2R)-3-[(1,3-benzodioxol-5-ylsulfonyl)(isobutyl)amino]-1-{4-[4-(dimethylamino)butoxy]benzyl}-2-hydroxypropylcarbamate] |  |  |  | 10 to 100 nM | 10 to 100 nM | 1 to 10 nM |  | 
11 | CC(C)CN(C[C@@H](O)[C@H](Cc1ccc(OCCCN2CCSC2)cc1)NC(=O)O[C@H]1CO[C@H]2OCC[C@H]21)S(=O)(=O)c1ccc2c(c1)OCO2 [Compound 277, (3R,3aS,6aR)-hexahydrofuro[2,3-b]furan-3-yl (1S,2R)-3-[(1,3-benzodioxol-5-ylsulfonyl)(isobutyl)amino]-2-hydroxy-1-{4-[3-(1,3-thiazolidin-3-yl)propoxy]benzyl}propylcarbamate] |  |  |  | 1 to 10 nM | 1 to 10 nM | 1 to 10 nM |  | 
12 | CC(C)CN(C[C@@H](O)[C@H](Cc1ccc(OCCCn2ccnc2)cc1)NC(=O)O[C@H]1CO[C@H]2OCC[C@H]21)S(=O)(=O)c1ccc2c(c1)OCO2 [Compound 278, (3R,3aS,6aR)-hexahydrofuro[2,3-b]furan-3-yl (1S,2R)-3-[(1,3-benzodioxol-5-ylsulfonyl)(isobutyl)amino]-2-hydroxy-1-{4-[3-(1H-imidazol-1-yl)propoxy]benzyl}propylcarbamate] |  |  |  | 10 to 100 nM | 1 to 10 nM | 1 to 10 nM |  | 
13 | CC(C)CN(C[C@@H](O)[C@H](Cc1ccc(OCCCN2CCCC2)cc1)NC(=O)O[C@H]1CO[C@H]2OCC[C@H]21)S(=O)(=O)c1ccc2c(c1)OCO2 [Compound 280, (3R,3aS,6aR)-hexahydrofuro[2,3-b]furan-3-yl (1S,2R)-3-[(1,3-benzodioxol-5-ylsulfonyl)(isobutyl)amino]-2-hydroxy-1-{4-[3-(1-pyrrolidinyl)propoxy]-3-benzyl}propylcarbamate] | 10 to 100 nM | 1 to 10 nM | 1 to 10 nM |  |  |  |  | 
14 | CC(C)CN(C[C@@H](O)[C@H](Cc1ccc(OCCCN2CCN(C)CC2)cc1)NC(=O)O[C@H]1CO[C@H]2OCC[C@H]21)S(=O)(=O)c1ccc2c(c1)OCO2 [Compound 282, (3R,3aS,6aR)-hexahydrofuro[2,3-b]furan-3-yl (1S,2R)-3-[(1,3-benzodioxol-5-ylsulfonyl)(isobutyl)amino]-2-hydroxy-1-{4-[3-(4-methyl-1-piperazinyl)propoxy]benzyl}propylcarbamate] |  |  |  | 10 to 100 nM | 10 to 100 nM | 1 to 10 nM |  | 
15 | COCCNCCCOc1ccc(C[C@H](NC(=O)O[C@H]2CO[C@H]3OCC[C@H]32)[C@H](O)CN(CC(C)C)S(=O)(=O)c2ccc3c(c2)OCO3)cc1 [Compound 283, (3R,3aS,6aR)-hexahydrofuro[2,3-b]furan-3-yl (1S,2R)-3-[(1,3-benzodioxol-5-ylsulfonyl)(isobutyl)amino]-2-hydroxy-1-(4-{3-[(2-methoxyethyl)amino]propoxy}benzyl) propylcarbamate] |  |  |  | 10 to 100 nM | 10 to 100 nM | 1 to 10 nM |  | 
16 | CC(C)CN(C[C@@H](O)[C@H](Cc1ccc(OCCCn2cccn2)cc1)NC(=O)O[C@H]1CO[C@H]2OCC[C@H]21)S(=O)(=O)c1ccc2c(c1)OCO2 [Compound 284, (3R,3aS,6aR)-hexahydrofuro[2,3-b]furan-3-yl (1S,2R)-3-[(1,3-benzodioxol-5-ylsulfonyl)(isobutyl)amino]-2-hydroxy-1-{4-[3-(1H-pyrazol-1-yl)propoxy]benzyl}propylcarbamate] |  |  |  | 1 to 10 nM | 1 to 10 nM | 1 to 10 nM |  | 
17 | CCCCNC(=O)CCCOc1ccc(C[C@H](NC(=O)O[C@H]2CO[C@H]3OCC[C@H]32)[C@H](O)CN(CC(C)C)S(=O)(=O)c2ccc3c(c2)OCO3)cc1 [Compound 288, (3R,3aS,6aR)-hexahydrofuro[2,3-b]furan-3-yl (1S,2R)-3-[(1,3-benzodioxol-5-ylsulfonyl)(isobutyl)amino]-1-{4-[4-(butylamino)-4-oxobutoxy]benzyl}-2-hydroxypropylcarbamate] |  |  |  | 1 to 10 nM | 1 to 10 nM | 1 to 10 nM |  | 
